From patent US7976843B2, “Method for screening peptides for use in immunotherapy” (Institut National de la Santa et de la Recherche Medicale …, priority 2000, dated 2011)

System: RMA-HHD cells infected with vac-HIVgag, vac-neu, vac-gp100 or flu PR8
Set-up: species or system HHD mice
Details: mouse, in vivo

Sequence	killing of RMA-HHD cells infected with virus expressing the antigen vs vac-WT
ILLVVVLGV [HER-2/neu 661]	exception
PLTSIISAV [HER-2/neu 650]	kill target cells infected with vac-neu, but not targets infected with vac-WT
